Drawing on patent publication US20250145598A1, “ACID CERAMIDASE INHIBITORS AND USES THEREOF” (The Regents of the University of California, priority 2021, published 2025), this text covers IC50 for 22 compounds.

By IC50 is commonly meant the concentration needed to halve the response being measured.

In the experiment the target is T1, Acid ceramidase (Homo sapiens, UniProt Q13510).
T1 sequence (Q13510 22-395): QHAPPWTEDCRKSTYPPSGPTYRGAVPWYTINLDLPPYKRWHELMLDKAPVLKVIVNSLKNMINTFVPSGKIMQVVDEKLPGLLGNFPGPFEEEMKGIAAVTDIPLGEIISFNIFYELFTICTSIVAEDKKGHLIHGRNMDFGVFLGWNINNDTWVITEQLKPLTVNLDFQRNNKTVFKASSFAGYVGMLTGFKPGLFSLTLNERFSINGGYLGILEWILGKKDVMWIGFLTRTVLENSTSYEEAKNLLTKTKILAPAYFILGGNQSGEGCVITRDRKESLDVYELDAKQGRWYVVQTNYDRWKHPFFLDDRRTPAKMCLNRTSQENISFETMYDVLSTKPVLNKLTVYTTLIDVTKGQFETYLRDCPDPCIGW
Kind of experiment: Acid ceramidase assay (AC in vitro IC50). Type of experiment: biochemical. The settings on record: Acid ceramidase assay data of example compounds.
`CC(C)N1CC(CNC(=O)n2cnc(-c3ccc(OCc4ccc(S(C)(=O)=O)cc4)cc3)c2)C1` [AC2020601-0379, N -((1-isopropylazetidin-3-yl)methyl)-4-(4-((4-(methylsulfonyl)benzyl)oxy)phenyl)-1H-imidazole-1-carboxamide] returned an IC50 greater than 3000 nM.

The compound `CS(=O)(=O)Nc1ccc(COc2ccc(-c3cn(C(=O)NCC4CN(c5ccccc5)C4)cn3)cc2)cc1` [AC2020601-0380, 4-(4-((4-(methylsulfonamido)benzyl)oxy)phenyl)-N-((1-phenylazetidin-3-yl)methyl)-1H-imidazole-1-carboxamide] returned an IC50 greater than 3000 nM.

`O=C(NCC1CN(c2ccccc2)C1)n1cnc(-c2ccc(OCc3cccc(N4CCOCC4)c3)cc2)c1` [AC2020601-0382, 4-(4-(3-morpholinobenzyloxy)phenyl)-N-((1-phenylazetidin-3-yl)methyl)-1H-imidazole-1-carboxamide]: the IC50 was less than 300 nM.

`O=C(Nc1ccc(COc2ccc(-c3cn(C(=O)NCC4CN(c5ccccc5)C4)cn3)cc2)cc1)C1COC1` [AC2020601-0401, 4-(4-((4-(oxetane-3-carboxamido)benzyl)oxy)phenyl)-N-((1-phenylazetidin-3-yl)methyl)-1H-imidazole-1-carboxamide] showed an IC50 of less than 300 nM.

For `CS(=O)(=O)c1ccc(COc2ccc(-c3cn(C(=O)NCCN4Cc5ccccc5C4)cn3)cc2)cc1` [AC2020601-0402, N-(2-(isoindolin-2-yl)ethyl)-4-(4-(4-(methylsulfonyl)benzyloxy)phenyl)-1H-imidazole-1-carboxamide], the IC50 was greater than 3000 nM.

In turn, `CS(=O)(=O)c1ccc(COc2ccc(-c3cn(C(=O)NCC4CN(c5cccc(Cl)c5)C4)cn3)cc2)cc1` [AC2020601-0407, N-((1-(3-chlorophenyl)azetidin-3-yl)methyl)-4-(4-((4-(methylsulfonyl)benzyl)oxy)phenyl)-1H-imidazole-1-carboxamide] showed an IC50 of less than 300 nM.

For the compound `CS(=O)(=O)c1ccc(C(CO)Oc2ccc(-c3cn(C(=O)NCC4CCN(c5ccccc5)C4)cn3)cc2)cc1` (stereo not shown) [AC2020601-0428, 4-(4-(2-hydroxy-1-(4-(methylsulfonyl)phenyl)ethoxy)phenyl)-N-((1-phenylpyrrolidin-3-yl)methyl)-1H-imidazole-1-carboxamide], the IC50 is less than 300 nM.

As for `CCS(=O)(=O)c1ccc(COc2ccc(-c3cn(C(=O)NCC4CCN(c5ccccc5)C4)cn3)cc2)c(C#N)c1` (stereo not shown) [AC2020601-0430, 4-(4-((2-cyano-4-(ethylsulfonyl)benzyl)oxy)phenyl)-N-((1-phenylpyrrolidin-3-yl)methyl)-1H-imidazole-1-carboxamide], the 50% inhibitory concentration (IC50) is less than 300 nM.

For `CCS(=O)(=O)c1ccc(COc2ccc(-c3cn(C(=O)NCC4CCN(c5ccccc5)C4)cn3)cc2)c(C(N)=O)c1` (stereo not shown) [AC2020601-0431, 4-(4-(2-carbamoyl-4-(ethylsulfonyl)benzyloxy)phenyl)-N-((1-phenylpyrrolidin-3-yl)methyl)-1H-imidazole-1-carboxamide], the IC50 was less than 300 nM.

`CN1CCN(c2cccc(COc3ccc(-c4cn(C(=O)NCC5CCN(c6ccccc6)C5)cn4)cc3)c2)CC1=O` (stereo not shown) [AC2020601-0434, 4-(4-(3-(4-methyl-3-oxopiperazin-1-yl)benzyloxy)phenyl)-N-((1-phenylpyrrolidin-3-yl)methyl)-1H-imidazole-1-carboxamide] registered an IC50 of less than 300 nM.

`O=C(Nc1ccc(COc2ccc(-c3cn(C(=O)NCC4CCN(c5ccccc5)C4)cn3)cc2)cc1)C1CC1` (stereo not shown) [AC2020601-0437, 4-(4-((4-(cyclopropanecarboxamido)benzyl)oxy)phenyl)-N-((1-phenylpyrrolidin-3-yl)methyl)-1H-imidazole-1-carboxamide] displayed an IC50 of less than 300 nM.

In the case of `NC(=O)c1cccnc1COc1ccc(-c2cn(C(=O)NCC3CCN(c4ccccc4)C3)cn2)cc1` (stereo not shown) [AC2020601-0438, 2-((4-(1-(((1-phenylpyrrolidin-3-yl)methyl)carbamoyl)-1H-imidazol-4-yl)phenoxy)methyl)nicotinamide], the IC50 is less than 300 nM.

`O=C(NCC1CCN(c2ccccc2)C1)n1cnc(-c2ccc(OC3CCc4cc(F)ccc43)cc2)c1` (stereo not shown) [AC2020601-0439, 4-(4-((5-fluoro-2,3-dihydro-1H-inden-1-yl)oxy)phenyl)-N-((1-phenylpyrrolidin-3-yl)methyl)-1H-imidazole-1-carboxamide] gave an IC50 of less than 300 nM.

Compound `CS(=O)(=O)c1ccc(COc2ccc(-c3cn(C(=O)NCC4CC(=O)N(c5ccccc5)C4)cn3)cc2)cc1` (stereo not shown) [AC2020601-0443, 4-(4-((4-(methylsulfonyl)benzyl)oxy)phenyl)-N-((5-oxo-1-phenylpyrrolidin-3-yl)methyl)-1H-imidazole-1-carboxamide] had an IC50 of less than 300 nM.

The compound `CS(=O)(=O)c1ccc(COc2ccc(-c3cn(C(=O)NCC4CCN(c5ccccc5)C4)cn3)cc2)cn1` (stereo not shown) [AC2020601-0444, 4-(4-((6-(methylsulfonyl)pyridin-3-yl)methoxy)phenyl)-N-((1-phenylpyrrolidin-3-yl)methyl)-1H-imidazole-1-carboxamide] yielded an IC50 of less than 300 nM.

`CS(=O)(=O)c1ccc(COc2ccc(-c3cn(C(=O)NCC4CCN(c5ccccc5)C4)cn3)cc2)nc1` (stereo not shown) [AC2020601-0445, 4-(4-((5-(methylsulfonyl)pyridin-2-yl)methoxy)phenyl)-N-((1-phenylpyrrolidin-3-yl)methyl)-1H-imidazole-1-carboxamide]: the IC50 is less than 300 nM.

For the compound `Cn1cnc(COc2ccc(-c3cn(C(=O)NCC4CCN(c5ccccc5)C4)cn3)cc2)n1` (stereo not shown) [AC2020601-0447, 4-(4-((1-methyl-1H-1,2,4-triazol-3-yl)methoxy)phenyl)-N-((1-phenylpyrrolidin-3-yl)methyl)-1H-imidazole-1-carboxamide], the half-maximal inhibitory concentration (IC50) is less than 300 nM.

In the case of `CC(C)n1ccc(COc2ccc(-c3cn(C(=O)NCC4CCN(c5ccccc5)C4)cn3)cc2)n1` (stereo not shown) [AC2020601-0448, 4-(4-((1-isopropyl-1H-pyrazol-3-yl)methoxy)phenyl)-N-((1-phenylpyrrolidin-3-yl)methyl)-1H-imidazole-1-carboxamide], the IC50 is less than 300 nM.

`CN1CCN(c2cccc(COc3ccc(-c4cn(C(=O)NCC5CN(c6ccccc6)C5)cn4)cc3)c2)CC1=O` [AC2020601-0449, 4-(4-(3-(4-methyl-3-oxopiperazin-1-yl)benzyloxy)phenyl)-N-((1-phenylazetidin-3-yl)methyl)-1H-imidazole-1-carboxamide]: the IC50 is less than 300 nM.

The compound `N#Cc1cccnc1COc1ccc(-c2cn(C(=O)NCC3CCN(c4ccccc4)C3)cn2)cc1` (stereo not shown) [AC2020601-0451, 4-(4-((3-cyanopyridin-2-yl)methoxy)phenyl)-N-((1-phenylpyrrolidin-3-yl)methyl)-1H-imidazole-1-carboxamide] showed a 50% inhibitory concentration (IC50) of less than 300 nM.

`CS(=N)(=O)c1ccc(COc2ccc(-c3cn(C(=O)NCC4CCN(c5ccccc5)C4)cn3)cc2)cc1` (stereo not shown) [AC2020601-0452, 4-(4-((4-(S-methylsulfonimidoyl)benzyl)oxy)phenyl)-N-((1-phenylpyrrolidin-3-yl)methyl)-1H-imidazole-1-carboxamide] had a concentration for half-maximal inhibition (IC50) of less than 300 nM.

Compound `CS(=O)(=O)c1ccc(COc2ccccc2-c2cn(C(=O)NCC3CN(c4ccccc4)C3)cn2)cc1` [AC2020601-0456, 4-(2-(4-(methylsulfonyl)benzyloxy)phenyl)-N-((1-phenylazetidin-3-yl)methyl)-1H-imidazole-1-carboxamide] returned an IC50 of less than 300 nM.
